According to the supplement of paper PMC13380429:

Tests used:
Details in all cases: 72 h
[1] = system: U2OS; assay: relative viability EC50 (midpoint between 100% and the lowest measured viability); higher = less toxic
[2] = system: HepG2; assay: as above
[3] = system: Calu-3; assay: as above
[4] = system: Vero E6; assay: as above
[5] = system: Caco-2; assay: as above
[6] = system: U2OS; assay: drug sensitivity score (DSS) for viability; higher = more toxic; extreme values may be limits of the assay
[7] = system: HepG2; assay: as above
[8] = system: Calu-3; assay: as above
[9] = system: Vero E6; assay: as above
[10] = system: Caco-2; assay: as above
[11] = system: U2OS; assay: cell viability relative to DMSO; higher = less toxic
[12] = system: HepG2; assay: as above
[13] = system: Calu-3; assay: as above
[14] = system: Vero E6; assay: as above
[15] = system: Caco-2; assay: as above

Structure (SMILES)	relative viability EC50 [1]	relative viability EC50 [2]	relative viability EC50 [3]	relative viability EC50 [4]	relative viability EC50 [5]	drug sensitivity score [6]	drug sensitivity score [7]	drug sensitivity score [8]	drug sensitivity score [9]	drug sensitivity score [10]	cell viability ([11]; 1 nM)	cell viability ([11]; 10 nM)	cell viability ([11]; 100 nM)	cell viability ([11]; 1000 nM)	cell viability ([11]; 10000 nM)	cell viability ([12]; 1 nM)	cell viability ([12]; 10 nM)	cell viability ([12]; 100 nM)	cell viability ([12]; 1000 nM)	cell viability ([12]; 10000 nM)	cell viability ([13]; 1 nM)	cell viability ([13]; 10 nM)	cell viability ([13]; 100 nM)	cell viability ([13]; 1000 nM)	cell viability ([13]; 10000 nM)	cell viability ([14]; 1 nM)	cell viability ([14]; 10 nM)	cell viability ([14]; 100 nM)	cell viability ([14]; 1000 nM)	cell viability ([14]; 10000 nM)	cell viability ([15]; 1 nM)	cell viability ([15]; 10 nM)	cell viability ([15]; 100 nM)	cell viability ([15]; 1000 nM)	cell viability ([15]; 10000 nM)
NC(=O)CC[C@H](NC(=O)Cc1ccccc1)C(=O)O [phenylacetylglutamine]	> 10 µM	> 10 µM	> 10 µM	> 10 µM	> 10 µM	0	0	0	0	0	97%	101%	97.8%	92.2%	97.5%	93.9%	94.4%	96.2%	90.9%	98.5%	90.6%	102%	94.9%	95.8%	98.3%	104%	94.6%	103%	100%	105%	91.4%	101%	82.2%	96%	92.9%
O=S(=O)(O)c1ccc2[nH]c(-c3ccccc3)nc2c1 [phenylbenzimidazole-sulfonic-acid]	> 10 µM	> 10 µM	> 10 µM	> 10 µM	> 10 µM	0	0	0	0	0	97.9%	96.7%	103%	99.3%	99.4%	85.6%	93%	93.2%	94.3%	99.2%	111%	112%	106%	105%	89.2%	96.3%	89.7%	97.3%	96.7%	107%	98.9%	95.8%	90.3%	93%	96.8%
CNC(=S)C1(c2ccccn2)CCCS1 (stereo not given) [picartamide]	> 10 µM	> 10 µM	> 10 µM	> 10 µM	> 10 µM	0	0	0	0	0	99.5%	104%	96.2%	99.4%	106%	98.3%	93.6%	103%	99.6%	97.8%	96.9%	93%	102%	106%	106%	103%	96.5%	106%	101%	93.7%	94.1%	96.8%	92.9%	95.1%	99.4%
Cc1cccc(C)c1NC(=O)CC12CCCN1CCC2 [pilsicainide]	> 10 µM	> 10 µM	> 10 µM	> 10 µM	> 10 µM	0	0	0	0	0	96.3%	92.8%	99.4%	94.7%	102%	86.5%	102%	90.2%	99.4%	91.1%	106%	94.6%	87.8%	102%	94.7%	102%	98.7%	99.9%	100%	100%	104%	83.8%	95%	94.7%	91.9%
CC(C)(C)C(=O)OCOC(=O)[C@@H]1N2C(=O)[C@@H](/N=C/N3CCCCCC3)[C@H]2SC1(C)C [pivmecillinam]	> 10 µM	> 10 µM	> 10 µM	> 10 µM	> 10 µM	0	0	0	0	0	102%	99.8%	103%	98.9%	104%	94.7%	92.7%	96.1%	95.5%	91.9%	90.9%	93.1%	97.9%	94.9%	112%	106%	102%	96.6%	104%	92.8%	88.8%	92.9%	93.3%	90.7%	97.2%
CCC/N=C1\S/C(=C\c2ccc(OC[C@H](O)CO)c(Cl)c2)C(=O)N1c1ccccc1C [ponesimod]	> 10 µM	> 10 µM	> 10 µM	> 10 µM	> 10 µM	0	0	0	0	0.7	98.5%	100%	100%	101%	98.4%	95.8%	89.6%	99.5%	102%	91.6%	90.5%	103%	105%	105%	108%	100%	94%	91.5%	91.5%	93.7%	91.2%	100%	95.6%	99%	79.6%
CCC1(c2ccccc2)C(=O)NCNC1=O [primidone]	> 10 µM	> 10 µM	> 10 µM	> 10 µM	> 10 µM	0	0.2	0	0	0	102%	98.3%	101%	102%	107%	112%	78.9%	89.4%	84.9%	96.3%	102%	94.8%	105%	94.1%	114%	94.5%	95.1%	92%	92.2%	95.3%	93.1%	100%	84.5%	101%	115%
C[C@H](NCc1ccc(OCc2ccccc2F)cc1)C(N)=O [priralfinamide]	> 10 µM	> 10 µM	> 10 µM	> 10 µM	> 10 µM	0	0	0	0	0	99.2%	102%	96.5%	99.6%	97.6%	98%	87.3%	98.5%	97.4%	93.6%	103%	95.2%	105%	91.5%	99.5%	99.5%	95.3%	99.4%	92.3%	91.7%	97.8%	104%	91.6%	95%	91.2%
CN(C)CCCN1c2ccccc2Sc2ccccc21 [promazine]	> 10 µM	> 10 µM	> 10 µM	> 10 µM	> 10 µM	0	0.1	0	0	0	98.7%	102%	96.4%	96.3%	99.5%	102%	89.6%	102%	93.5%	87.6%	93.7%	102%	95.2%	95.6%	101%	102%	100%	95.1%	97.2%	96%	95.5%	98.3%	93.6%	96.1%	102%
O=C1C[C@@]2(C(=O)N1)C(=O)N(Cc1ccc(Br)cc1F)C(=O)c1cccn12 [ranirestat]	> 10 µM	> 10 µM	> 10 µM	> 10 µM	> 10 µM	0	0	0	0	0	96.8%	97.1%	103%	96.8%	100%	102%	106%	90.6%	99.2%	104%	92.6%	104%	104%	102%	95.8%	94%	96.7%	90.8%	92.2%	100%	99.6%	98.4%	101%	98.6%	103%
C=CCNc1c(O)cc2c(O)c1C[C@@H](C)C[C@H](OC)[C@H](O)[C@@H](C)/C=C(\C)[C@H](OC(N)=O)[C@@H](OC)/C=C\C=C(/C)C(=O)N2 [retaspimycin]	0.232 µM	0.0315 µM	0.199 µM	0.815 µM	0.819 µM	19.2	30	11.5	9.7	8.8	96.5%	99%	88%	5.2%	2.1%	97.3%	95.6%	6.2%	1.8%	2.9%	94.2%	89.1%	84.5%	46.2%	41.2%	99.3%	100%	104%	53.3%	25.5%	92.1%	101%	94%	60%	27.8%
C[C@H](O)[C@H](O)[C@H]1CNc2nc(N)[nH]c(=O)c2N1 [sapropterin]	> 10 µM	> 10 µM	> 10 µM	> 10 µM	> 10 µM	0	0.1	0	0	0	99.9%	95.4%	101%	91.3%	99.9%	98.6%	87.3%	94.2%	102%	86.1%	94.9%	97%	98.6%	106%	99.4%	97.1%	102%	99.6%	96.9%	92.6%	109%	114%	90.3%	107%	106%
COc1cc2c(c(OC)c1OC)-c1c(cc3c(c1OC)OCO3)C[C@H](C)[C@@](C)(O)C2 [schisandrol-B]	> 10 µM	> 10 µM	> 10 µM	> 10 µM	> 10 µM	0	0	0	0	0	101%	99.9%	105%	103%	97.9%	100%	114%	93.3%	98.4%	100%	100%	92.8%	101%	105%	96.5%	102%	102%	102%	100%	97.8%	104%	92%	95.9%	95.9%	97.4%
